Laboratory results as given in PubChem BioAssay (NCI).
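The compound was tested at five concentrations on cells cultured in 96-well plates, with a 48-hour exposure period. The concentration for full growth arrest is given as TGI.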

Experiments:
Test in all cases: growth of human tumour cells (NCI), 48 h
[1] = tested on: A549 NSCLC
[2] = tested on: ACHN renal
[3] = tested on: CCRF-CEM leukemia
[4] = tested on: COLO 205 colon
[5] = tested on: DU-145 prostate
[6] = tested on: HCC-2998 colon
[7] = tested on: HOP-62 NSCLC
[8] = tested on: IGROV1 ovarian
[9] = tested on: LOX IMVI melanoma
[10] = tested on: M14 melanoma
[11] = tested on: MDA-MB-435
[12] = tested on: OVCAR-4 ovarian
[13] = tested on: OVCAR-8 ovarian
[14] = tested on: SF-295 CNS
[15] = tested on: SK-MEL-5 melanoma
[16] = tested on: SK-OV-3 ovarian
[17] = tested on: SNB-19 CNS
[18] = tested on: SW-620 colon
[19] = tested on: T-47D breast
[20] = tested on: M19-MEL melanoma

Structure (SMILES)	TGI [1]	TGI [2]	TGI [3]	TGI [4]	TGI [5]	TGI [6]	TGI [7]	TGI [8]	TGI [9]	TGI [10]	TGI [11]	TGI [12]	TGI [13]	TGI [14]	TGI [15]	TGI [16]	TGI [17]	TGI [18]	TGI [19]	TGI [20]
O=C(Oc1cccnc1)c1cc2cc(CCl)ccc2oc1=O	> 100 µM	> 100 µM	> 100 µM	69.5 µM	39.5 µM	> 100 µM	> 100 µM	66.3 µM	44.7 µM	53.1 µM	73 µM	60.3 µM	> 100 µM	> 100 µM	> 100 µM	> 100 µM	> 100 µM	> 100 µM	48 µM	
CC(=O)O/C(=C1\C[C@H]2[C@@H]3CC=C4C[C@@H](OC(C)=O)CC[C@]4(C)[C@H]3CC[C@]2(C)C1=O)C(F)(F)F	36.8 µM	48 µM	13.9 µM	25.7 µM	25.2 µM	19 µM	32.8 µM	19.8 µM	5.17 µM	15.2 µM	16.4 µM	61.4 µM	16.8 µM	35.9 µM	14.4 µM	44.5 µM	40.6 µM	19.8 µM	21.2 µM	
N#CC(OC1OC(COC2OC(CO)C(O)C(O)C2O)C(O)C(O)C1O)c1ccccc1 (configuration not stated)	> 225 µM		> 225 µM	> 225 µM		> 225 µM	> 225 µM	> 225 µM	> 225 µM			> 225 µM	> 225 µM	> 225 µM	> 225 µM	> 225 µM	> 225 µM	> 225 µM		> 225 µM
Cc1cc(C)c(C[C@H]2COC(=O)[C@]2(O)Cc2c(C)cc(C)cc2C)c(C)c1	34 µM	35.7 µM	> 100 µM	40.3 µM	31.9 µM	30.7 µM	35.8 µM		36.1 µM	36.3 µM	37 µM	28.3 µM	45.2 µM	34.1 µM	39.6 µM	34.2 µM	39.4 µM	53.8 µM	25.2 µM	
CCOC(=O)CO/N=C1/C(c2c(O)[nH]c3ccccc23)=Nc2ccccc21	> 100 µM	> 100 µM	> 100 µM	> 100 µM	> 100 µM	> 100 µM	46 µM	79.2 µM	> 100 µM	> 100 µM	> 100 µM	16.5 µM	> 100 µM	> 100 µM	> 100 µM	49.2 µM	89.4 µM	> 100 µM	45.8 µM	
CN1C(=O)CSC1=S	> 100 µM	> 100 µM	> 100 µM	> 100 µM			> 100 µM	> 100 µM	> 100 µM	> 100 µM		> 100 µM	> 100 µM	> 100 µM	> 100 µM	> 100 µM		> 100 µM		> 100 µM
CNC(=S)N=Nc1c(O)n(CN2CCOCC2)c2ccc([N+](=O)[O-])cc12	> 100 µM	35.3 µM	71.8 µM	91.3 µM	27.3 µM	45.1 µM	28.2 µM		31.8 µM	> 100 µM	> 100 µM	31.2 µM		53.4 µM	> 100 µM	31.9 µM	61.2 µM	> 100 µM	38.9 µM	
COc1cc(N=Nc2cccc(S(=O)(=O)O)c2)ccc1N=Nc1ccc(/C=C/c2ccc(-n3on3-c3ccc(/C=C/c4ccc(N=Nc5ccc(N=Nc6cccc(S(=O)(=O)O)c6)cc5OC)cc4S(=O)(=O)O)c(S(=O)(=O)O)c3)cc2S(=O)(=O)O)c(S(=O)(=O)O)c1	> 100 µM		> 100 µM	> 100 µM		> 100 µM	> 100 µM	> 100 µM	> 100 µM			> 100 µM	> 100 µM	> 100 µM	> 100 µM	> 100 µM	> 100 µM	> 100 µM		> 100 µM
COc1ccc(/C(Cl)=C(\C=O)c2ccc(OC)c(OC)c2)cc1		> 100 µM	> 100 µM	> 100 µM				> 100 µM	> 100 µM	> 100 µM			> 100 µM	> 100 µM	> 100 µM	> 100 µM	> 100 µM	> 100 µM		> 100 µM
O=C(c1ccccc1)c1c(-c2ccccc2)n(-c2ccccc2)[nH]c(=O)c1=O	> 100 µM	> 100 µM	35.5 µM	> 100 µM	> 100 µM	> 100 µM	> 100 µM	> 100 µM	> 100 µM	> 100 µM	> 100 µM	> 100 µM	> 100 µM	> 100 µM	> 100 µM	> 100 µM	> 100 µM		> 100 µM	
O=C(c1cccs1)N(C(=O)N1CCN(c2ccccc2)CC1)S(=O)(=O)c1ccccc1	98.4 µM	39.9 µM	> 100 µM	30.1 µM	60.9 µM	> 100 µM	> 100 µM			36 µM	70.6 µM	> 100 µM	39.5 µM	> 100 µM	30.7 µM	> 100 µM	72.2 µM	> 100 µM	40.4 µM	
CC1CC[C@@]2(OC1)OC1C[C@H]3[C@@H]4CC[C@H]5CC(OC6OC(CO)C(O)C(OC7OC(CO)C(OC8OC(CO)C(O)C(OC9OC(CO)C(O)C(O)C9O)C8OC8OC(CO)C(O)C(O)C8O)C(O)C7O)C6O)[C@H](O)CC5(C)[C@H]4CCC3(C)C1[C@@H]2C (some centres not stated)	21.6 µM	7.4 µM	10.2 µM	6.04 µM	12.1 µM	4.71 µM	11.3 µM	4.59 µM	9.05 µM	17.6 µM	14.6 µM	9.55 µM	6.67 µM	9.39 µM	13.6 µM	14.1 µM	9.47 µM	8.32 µM	4.58 µM	
c1ccc([P+](CC[P+](c2ccccc2)(c2ccccc2)c2ccccc2)(c2ccccc2)c2ccccc2)cc1	> 100 µM	> 100 µM	2.95 µM	24.9 µM	> 100 µM	44.5 µM	> 100 µM	> 100 µM	> 100 µM	> 100 µM	45.5 µM	> 100 µM	> 100 µM	> 100 µM	39.6 µM	> 100 µM	> 100 µM	> 100 µM	> 58.8 µM	
COc1ccc(NC(=O)N(C)CC2(O)CCC(C(C)(C)C)CC2)cc1 (configuration not stated)	> 100 µM	> 100 µM	> 100 µM	> 100 µM	> 100 µM		> 100 µM	> 100 µM	74.7 µM	> 100 µM	> 100 µM	> 100 µM	> 100 µM	91.7 µM		> 100 µM	> 100 µM	> 100 µM		
COC(=O)c1ccccc1Nc1nc(-c2cccs2)nc2cc(OC)c(OC)cc12	> 100 µM	> 100 µM		> 100 µM	> 100 µM		42.1 µM	74.7 µM	> 100 µM	> 100 µM	> 100 µM	> 100 µM	> 100 µM	97.7 µM	> 100 µM	> 100 µM	> 100 µM	> 100 µM	> 100 µM	
O=C1NP23(OCCO2)Oc2ccccc2C3(C(F)(F)F)O1 (configuration not stated)	> 100 µM	> 100 µM	> 100 µM						> 100 µM	> 100 µM		> 100 µM	> 100 µM	> 100 µM	> 100 µM	> 100 µM	> 100 µM			> 100 µM
O=C(O)C1C2C=CC(C2)C1c1ccccc1 (configuration not stated)	> 100 µM	> 100 µM	> 100 µM	> 100 µM	> 100 µM	> 100 µM	> 100 µM		> 100 µM	> 100 µM	> 100 µM		> 100 µM	> 100 µM	> 100 µM	> 100 µM	> 100 µM	> 100 µM	> 100 µM	
COc1ccc(CC2c3cc(OC)c(OC)cc3CC[N+]2(C)C)cc1OC (configuration not stated)	> 100 µM	> 100 µM	> 100 µM	> 100 µM	> 100 µM	> 100 µM		> 100 µM	> 100 µM		> 100 µM	> 100 µM	> 100 µM	> 100 µM	> 100 µM	> 100 µM	> 100 µM	> 100 µM	> 100 µM	
CCC(C)C1NC(=O)C(NC(=O)c2c3[nH]c4c(C(=O)NC5C(=O)NC(C(C)CC)C(=O)N6CCCC6C(=O)N(C)CC(=O)N(C)C(C(C)C)C(=O)OC5C)ccc(C)c4oc-3c(C)c(=O)c2=O)C(C)OC(=O)C(C(C)C)N(C)C(=O)CN(C)C(=O)C2CCCN2C1=O (configuration not stated)	> 100 µM	65.2 µM	9.81 µM	13.4 µM	> 78 µM	27.7 µM	> 100 µM	> 100 µM	> 53.4 µM	40.5 µM	> 71.6 µM	> 89.1 µM	38.3 µM	> 93 µM	> 100 µM	> 100 µM	> 100 µM	> 93.7 µM	> 40.5 µM	
CCOP(=O)(COCCn1ncc(=O)[nH]c1=O)OCC	> 100 µM	> 100 µM	> 100 µM	> 100 µM	> 100 µM	> 100 µM	> 100 µM	> 100 µM	> 100 µM	> 100 µM	> 100 µM		> 100 µM		> 100 µM		> 100 µM	> 100 µM	> 100 µM	
COc1c(OC(C)=O)c(OC(C)=O)cc2c1-c1ccc(SC)c(=O)cc1C(NC(C)=O)CC2 (configuration not stated)	> 100 µM	> 100 µM	> 100 µM	4.32 µM	4.12 µM	> 27.6 µM	> 100 µM	> 100 µM	> 100 µM	> 100 µM	0.632 µM	> 100 µM	> 100 µM	21.3 µM	0.794 µM	> 44 µM	> 100 µM	> 100 µM	> 100 µM	> 100 µM
Oc1cc(O)cc(-c2nc3cc(F)ccc3s2)c1	> 100 µM	81.3 µM	> 100 µM	40 µM	> 100 µM			70.9 µM	39.3 µM	50.1 µM	> 100 µM	63.7 µM	64.8 µM	36 µM	37.1 µM	70.4 µM	97.2 µM	> 100 µM	51.4 µM	
COc1cc(O)c(C(=O)/C=C/c2ccc(O)cc2)cc1Oc1ccc(/C=C/C(=O)c2ccc(O)cc2O)cc1	> 50 µM	15.7 µM	29.4 µM	15.4 µM	23.6 µM		18.7 µM	15 µM	18.3 µM	17.4 µM	25.7 µM	16 µM	24.7 µM	18.2 µM	14.3 µM	15.9 µM	43.1 µM	38.5 µM	> 50 µM	
